Reference: patent US20210380606A1, “5-AZAINDAZOLE DERIVATIVES AS ADENOSINE RECEPTOR ANTAGONISTS” (Merck Patent GmbH, priority 2018, published 2021)

Tests used:
human A2A receptors = target: T1, human A2A receptors (Homo sapiens, UniProt P29274); experiment: Functional human A2A receptor activity, recombinant HEK293 cells, cAMP (HTRF); format: cell-based; conditions: read-out: A2A (Category)
T1 construct: expressed in transfected cells; host or cells: HEK293
Method in brief: (§1)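 cAMP accumulation, determined by HTRF after a 15 min incubation, served as the functional measure of receptor activity.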

human A2B receptors = target: T2, human A2B receptors (Homo sapiens, UniProt P29275); experiment: Functional human A2B receptor activity, recombinant HEK293 cells, cAMP (HTRF); format: cell-based; conditions: read-out: A2B (Category)
T2 construct: expressed in transfected cells; host or cells: HEK293
T2 sequence (P29275 1-332): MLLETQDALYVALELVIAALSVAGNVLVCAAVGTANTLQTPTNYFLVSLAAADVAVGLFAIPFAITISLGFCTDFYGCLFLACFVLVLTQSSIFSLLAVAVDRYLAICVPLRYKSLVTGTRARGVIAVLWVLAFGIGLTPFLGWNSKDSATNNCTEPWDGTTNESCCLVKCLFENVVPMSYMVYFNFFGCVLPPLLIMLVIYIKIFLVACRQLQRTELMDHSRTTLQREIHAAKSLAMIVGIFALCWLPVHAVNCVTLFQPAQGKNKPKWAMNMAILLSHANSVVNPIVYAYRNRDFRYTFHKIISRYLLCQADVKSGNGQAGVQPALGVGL
Method in brief: as §1

T1 sequence (P29274 whole entry): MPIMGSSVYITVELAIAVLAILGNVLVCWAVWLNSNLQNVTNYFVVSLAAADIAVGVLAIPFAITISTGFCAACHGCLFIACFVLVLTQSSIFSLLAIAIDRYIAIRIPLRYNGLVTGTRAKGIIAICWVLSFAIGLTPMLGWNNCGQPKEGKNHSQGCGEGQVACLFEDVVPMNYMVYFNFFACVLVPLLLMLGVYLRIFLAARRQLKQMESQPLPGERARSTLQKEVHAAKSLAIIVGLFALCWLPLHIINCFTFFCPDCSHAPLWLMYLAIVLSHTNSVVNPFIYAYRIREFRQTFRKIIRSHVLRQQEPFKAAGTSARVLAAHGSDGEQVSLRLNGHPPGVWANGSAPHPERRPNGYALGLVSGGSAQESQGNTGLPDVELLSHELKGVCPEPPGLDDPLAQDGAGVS

Row | SMILES | IC50 (human A2A receptors) | IC50 (human A2B receptors)
1 | O=C(c1cc2c(cn1)c(-c1cnc3c(F)cc(F)cn13)nn2CC(F)(F)F)N1CC2CC3CC(C2)CC1C3 [Compound 169, (4-Aza-tricyclo[4.3.1.1*3,8*]undec-4-yl)-[3-(6,8-difluoro-imidazo[1,2-a]pyridin-3-yl)-1-(2,2,2-trifluoro-ethyl)-1H-pyrazolo[4,3-c]pyridin-6-yl]-methanone] | < 100 nM | < 100 nM
2 | CC1(O)C2CCC1CN(C(=O)c1cc3c(cn1)c(-c1cnc4c(F)cc(F)cn14)nn3CS(C)(=O)=O)C2 (stereo not drawn) [Compound 24, [3-(6,8-Difluoro-imidazo[1,2-a]pyridin-3-yl)-1-methanesulfonylmethyl-1H-pyrazolo[4,3-c]pyridin-6-yl]-(8-endo-hydroxy-8-exo-methyl-3-aza-bicyclo[3.2.1]oct-3-yl)-methanone] | < 100 nM | < 100 nM
3 | CCCn1nc(-c2cnc3ccc(C(N)=O)cn23)c2cnc(C(=O)N3CCCCCC3)cc21 [Compound 245, 3-[6-(Azepane-1-carbonyl)-1-propyl-1H-pyrazolo[4,3-c]pyridin-3-yl]-imidazo[1,2-a]pyridine-6-carboxylic acid amide] | < 100 nM | < 1000 nM
4 | O=C(c1cc2c(cn1)c(-c1cnn3ccccc13)nn2CC(F)(F)F)N1CCC(O)CC1 [Compound 114, (4-hydroxy-1-piperidyl)-[3-pyrazolo[1,5-a]pyridin-3-yl-1-(2,2,2-trifluoroethyl)pyrazolo[4,3-c]pyridin-6-yl]methanone] | < 100 nM | < 100 nM
5 | O=C(c1cc2c(cn1)c(-c1cnn3ccccc13)nn2CC(F)(F)F)N1CCCOCC1 [Compound 95, 1,4-Oxazepan-4-yl-[3-pyrazolo[1,5-a]pyridine-3-yl-1-(2,2,2-trifluoro-ethyl)-1H-pyrazolo[4,3-c]pyridine-6-yl]-methanone] | < 100 nM | < 1000 nM
6 | O=C(c1cc2c(cn1)c(-c1cnc3c(F)cc(F)cn13)nn2CC(F)(F)F)N1C2CCCC1CC2 [Compound 172, (8-Aza-bicyclo[3.2.1]oct-8-yl)-[3-(6,8-difluoro-imidazo[1,2-a]pyridin-3-yl)-1-(2,2,2-trifluoro-ethyl)-1H-pyrazolo[4,3-c]pyridin-6-yl]-methanone] | < 100 nM | < 100 nM
7 | O=C(c1cc2c(cn1)c(-c1coc3ccccc13)nn2CC(F)(F)F)N1CCC(F)(F)CC1 [Compound 225, [3-(benzofuran-3-yl)-1-(2,2,2-trifluoroethyl)pyrazolo[4,3-c]pyridin-6-yl]-(4,4-difluoro-1-piperidyl)methanone] | < 100 nM | < 1000 nM
8 | CS(=O)(=O)Cn1nc(-c2coc3ccccc23)c2cnc(C(=O)N3CC4CCC(C3)O4)cc21 [Compound 107, (3-Benzofuran-3-yl-1-methanesulfonylmethyl-1H-pyrazolo[4,3-c]pyridine-6-yl)-(8-oxa-3-aza-bicyclo[3.2.1]oct-3-yl)-methanone] | < 100 nM | < 100 nM
9 | O=C(c1cc2c(cn1)c(-c1cnc3c(F)cc(F)cn13)nn2CC(F)(F)F)N1CCCCCO1 [Compound 191, [3-(6,8-Difluoro-imidazo[1,2-a]pyridin-3-yl)-1-(2,2,2-trifluoro-ethyl)-1H-pyrazolo[4,3-c]pyridin-6-yl]-[1,2]oxazepan-2-yl-methanone] | < 100 nM | < 1000 nM
10 | CS(=O)(=O)Cn1nc(-c2coc3ccccc23)c2cnc(C(=O)N3CCCOCC3)cc21 [Compound 16, (3-Benzofuran-3-yl-1-methanesulfonylmethyl-1H-pyrazolo[4,3-c]pyridine-6-yl)-1,4-oxazepan-4-yl-methanone] | < 100 nM | < 100 nM
11 | O=C(c1cc2c(cn1)c(-c1coc3ccccc13)nn2CC(F)(F)F)N1CCOCC(F)C1 (stereo not drawn) [Compound 230, [3-(benzofuran-3-yl)-1-(2,2,2-trifluoroethyl)pyrazolo[4,3-c]pyridin-6-yl]-[6-fluoro-1,4-oxazepan-4-yl]methanone] | < 100 nM | < 100 nM
12 | CCN(C(=O)c1cc2c(cn1)c(-c1coc3ccccc13)nn2CC(F)(F)F)C(C)C [Compound 234, 3-(benzofuran-3-yl)-N-ethyl-N-isopropyl-1-(2,2,2-trifluoroethyl)-pyrazolo[4,3-c]pyridine-6-carboxamide] | < 100 nM | < 1000 nM
13 | O=C(c1cc2c(cn1)c(-c1coc3ccccc13)nn2CC(F)(F)F)N1CC2CCC(C2)C1 [Compound 101, (3-Aza-bicyclo[3.2.1]oct-3-yl)-[3-benzofuran-3-yl-1-(2,2,2-trifluoro-ethyl)-1H-pyrazolo[4,3-c]pyridin-6-yl]-methanone] | < 100 nM | < 100 nM
14 | O=C(c1cc2c(cn1)c(-c1coc3ccccc13)nn2CC(F)(F)F)N1CCCC(O)CC1 (stereo not drawn) [Compound 228, [3-(benzofuran-3-yl)-1-(2,2,2-trifluoroethyl)pyrazolo[4,3-c]pyridin-6-yl]-(4-hydroxyazepan-1-yl)methanone] | < 100 nM | < 100 nM
15 | CC1(C)CC(O)CCN1C(=O)c1cc2c(cn1)c(-c1coc3ccccc13)nn2CC(F)(F)F (stereo not drawn) [Compound 219, [3-Benzofuran-3-yl-1-(2,2,2-trifluoro-ethyl)-1H-pyrazolo[4,3-c]pyridin-6-yl]-(4-hydroxy-2,2-dimethyl-piperidin-1-yl)-methanone] | < 100 nM | < 1000 nM
16 | O=C(c1cc2c(cn1)c(-c1cnc3cc(F)c(Cl)cn13)nn2CC(F)(F)F)N1CCCCCC1 [Compound 74, Azepan-1-yl-[3-(6-chloro-7-fluoro-imidazo[1,2-a]pyridin-3-yl)-1-(2,2,2-trifluoro-ethyl)-1H-pyrazolo[4,3-c]pyridin-6-yl]-methanone] | < 100 nM | < 1000 nM
17 | CCCn1nc(-c2cnc3ccc(F)cn23)c2cnc(C(=O)N3CCCCCC3)cc21 [Compound 5, Azepan-1-yl-[3-(6-fluoro-imidazo[1,2-a]pyridin-3-yl)-1-propyl-1H-pyrazolo[4,3-c]pyridin-6-yl]-methanone] | < 100 nM | < 1000 nM
18 | CCCn1nc(-c2coc3ccccc23)c2cnc(C(=O)N3CCCOCC3)cc21 [Compound 106, (3-Benzofuran-3-yl-1-propyl-1H-pyrazolo[4,3-c]pyridin-6-yl)-1,4-oxazepan-4-yl-methanone] | < 100 nM | < 1000 nM
19 | CS(=O)(=O)Cn1nc(-c2cnn3ccncc23)c2cnc(C(=O)N3CCCOCC3)cc21 [Compound 250, (1-Methanesulfonylmethyl-3-pyrazolo[1,5-a]pyrazin-3-yl-1H-pyrazolo[4,3-c]pyridin-6-yl)-(1,4-oxazepan-4-yl)methanone] | < 100 nM | < 1000 nM
20 | CS(=O)(=O)Cn1nc(-c2cnc3c(F)cc(F)cn23)c2cnc(C(=O)N3[C@@H]4CC[C@H]3C[C@@H](O)C4)cc21 [Compound 25, [3-(6,8-Difluoro-imidazo[1,2-a]pyridin-3-yl)-1-methanesulfonylmethyl-1H-pyrazolo[4,3-c]pyridin-6-yl]-(3-endo-hydroxy-8-aza-bicyclo[3.2.1]oct-8-yl)-methanone] | < 100 nM | < 100 nM
21 | O=C(c1cc2c(cn1)c(-c1cnc3c(F)cc(F)cn13)nn2CC(F)(F)F)N1CCC(F)(F)CC1 [Compound 146, [3-(6,8-Difluoro-imidazo[1,2-a]pyridin-3-yl)-1-(2,2,2-trifluoro-ethyl)-1H-pyrazolo[4,3-c]pyridin-6-yl]-(4,4-difluoro-piperidin-1-yl)-methanone] | < 100 nM | < 1000 nM
